What was measured:
[1] = tested on: substance P induced plasma extravasation; experiment: Antagonism of substance P induced plasma extravasation in guinea-pigs; format: in vivo; conditions: lowest active dose, female guinea-pigs; for LAD nose: compound 1 hour prior to substance P (2 mg/kg, femoral artery), blue colouring of nose 10 minutes after challenge; for LAD conjunctiva / LAD forepaws / LAD trachea / LAD urinary bladder: compound 1 hour prior to substance P; for LAD conjunctiva: blue colouring of conjunctiva 10 minutes after challenge; for LAD forepaws: blue colouring of forepaws 10 minutes after challenge; for LAD trachea: blue colouring of trachea 30 minutes after challenge; for LAD urinary bladder: blue colouring of urinary bladder 30 minutes after challenge
Summary of the method: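 Female guinea-pigs dosed with compound 1 hour before femoral-artery substance P (2 mg/kg) plus Evans Blue (30 mg/kg). Blue colouring of nose, forepaws and conjunctiva scored at 10 minutes, trachea and bladder at 30 minutes; value is lowest active dose (mg/kg).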

[2] = tested on: substance-P induced relaxation of the pig coronary arteries; experiment: Antagonism of substance-P induced relaxation of the pig coronary arteries; format: cell-based; conditions: concentration at which 50% of the response to 10^−9 M substance P was inhibited, 30 minutes incubation, prostaglandin F2a precontracted segments
Summary of the method: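 Inverted pig coronary artery segments (endothelium outside) in Krebs-Henseleit, 37 °C, O2/CO2 95/5, precontracted with prostaglandin F2a (10^−5 M); substance P 3×10^−10 and 10^−9 M added cumulatively. Compound incubated 30 min before repeat challenge; IC50 is concentration inhibiting 50% of the relaxation to 10^−9 M substance P.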

Work on O=C(c1cc(C(F)(F)F)cc(C(F)(F)F)c1)N1CC[C@H](N2CCN(Cc3ccccc3)CC2)C[C@@H]1Cc1ccccc1 (racemic) [Compound 16, (±)-cis-1-[3,5-bis(trifluoromethyl)benzoyl]-2-(phenylmethyl)-4-[4-(phenylmethyl)-1-piperazinyl]piperidine] yielded an LAD nose [1] of 40.0 mg/kg, an LAD conjunctiva [1] of 40.0 mg/kg and an LAD forepaws [1] of 40.0 mg/kg. It also gave an LAD trachea [1] greater than 40 mg/kg, an LAD urinary bladder [1] greater than 40 mg/kg and a melting point of 143.8 °C.
For O=C(c1cc(C(F)(F)F)cc(C(F)(F)F)c1)N1CC[C@@H](N2CCN(Cc3ccccc3)CC2)C[C@@H]1Cc1ccccc1 (racemic) [Compound 17, (±)-trans-1-[3,5-bis(trifluoromethyl)benzoyl]-2-(phenylmethyl)-4-[4-(phenylmethyl)-1-piperazinyl]piperidine (E)-2-butenedioate(1:2)], the IC50 ([2]; Sus scrofa, 0.5 h) was 1.68 nM, the LAD nose [1] was 10.0 mg/kg and the LAD conjunctiva [1] was 10.0 mg/kg. The LAD forepaws [1] was 10.0 mg/kg, the LAD trachea [1] was greater than 40 mg/kg and the LAD urinary bladder [1] was 10.0 mg/kg. It also gave a melting point of 240.3 °C.
With Cc1cc(C)cc(OC(=O)C(c2ccccc2)N2CCN([C@H]3CCN(C(=O)c4cc(C(F)(F)F)cc(C(F)(F)F)c4)[C@@H](Cc4ccccc4)C3)CC2)c1 (mixture of isomers) [Compound 43, (±)-3,5-dimethylphenyl cis-4-[1-[3,5-bis(trifluoromethyl)benzoyl]-2-(phenylmethyl)-4-piperidinyl]-α-phenyl-1-piperazineacetate] the IC50 ([2]; Sus scrofa, 0.5 h) was 5.63 nM and the melting point was 88.1 °C.
With Cc1cccc(C)c1NC(=O)CN1CCN([C@@H]2CCN(C(=O)c3cc(C(F)(F)F)cc(C(F)(F)F)c3)[C@@H](Cc3ccccc3)C2)CC1.O=C(O)/C=C/C(=O)O (relative stereo) [Compound 128, (B-trans)-4-[1-[3,5-bis(trifluoromethyl)benzoyl]-2-(phenylmethyl)-4-piperidinyl]-N-(2,6-dimethylphenyl)-1-piperazineacetamide (E)-2-butenedioate (1:1)] the IC50 [2] was 0.35 nM, the LAD nose [1] was 0.63 mg/kg and the LAD conjunctiva [1] was 0.63 mg/kg. For the same molecule, the LAD forepaws [1] was 0.63 mg/kg, the LAD trachea [1] was greater than 40 mg/kg and the LAD urinary bladder [1] was 10.0 mg/kg.
Work on Cc1cccc(C)c1NC(=O)CN1CCN(C2CCN(C(=O)c3cc(C(F)(F)F)cc(C(F)(F)F)c3)C(Cc3ccccc3)C2)CC1 (single isomer, unassigned) [Compound 42] yielded an IC50 [2] of 0.93 nM, an LAD nose [1] of 1.25 mg/kg and an LAD conjunctiva [1] of 2.50 mg/kg. The LAD forepaws [1] was 1.25 mg/kg, the LAD trachea [1] was 5.00 mg/kg and the LAD urinary bladder [1] was 5.00 mg/kg.
Cc1cccc(C)c1NC(=O)CN1CCN(C2CCN(C(=O)c3cc(C(F)(F)F)cc(C(F)(F)F)c3)C(Cc3ccc(C(F)(F)F)cc3)C2)CC1.O=C(O)/C=C/C(=O)O (single isomer, unassigned) [Compound 136] gave an IC50 [2] of 0.31 nM, an LAD nose [1] of 2.50 mg/kg and an LAD conjunctiva [1] of 2.50 mg/kg. For the same molecule, the LAD forepaws [1] was 2.50 mg/kg, the LAD trachea [1] was 2.50 mg/kg and the LAD urinary bladder [1] was 2.50 mg/kg.
Work on Cc1cccc(C)c1NC(=O)CN1CCN(C2CCN(C(=O)c3cc(C(F)(F)F)cc(C(F)(F)F)c3)C(Cc3ccc(C(F)(F)F)cc3)C2)CC1 (single isomer, unassigned) [Compound 137] yielded an IC50 [2] of 0.23 nM, an LAD nose [1] of 2.50 mg/kg and an LAD conjunctiva [1] of 2.50 mg/kg. The LAD forepaws [1] was 2.50 mg/kg, the LAD trachea [1] was 2.50 mg/kg and the LAD urinary bladder [1] was 2.50 mg/kg.
With O=C(c1cc(C(F)(F)F)cc(C(F)(F)F)c1)N1CCC(N2CCN(CCn3c(=O)[nH]c4ccccc43)CC2)CC1Cc1ccccc1 (stereo not drawn) [Compound 19] the IC50 [2] was 0.54 nM, the LAD nose [1] was 2.50 mg/kg and the LAD conjunctiva [1] was 2.50 mg/kg. For the same molecule, the LAD forepaws [1] was 2.50 mg/kg, the LAD trachea [1] was 10.0 mg/kg and the LAD urinary bladder [1] was greater than 40 mg/kg.
With CCOCCn1c(N2CCN(C3CCN(C(=O)c4cc(C(F)(F)F)cc(C(F)(F)F)c4)C(Cc4ccccc4)C3)CC2)nc2ccccc21 (stereo not drawn) [Compound 22] the IC50 [2] was 0.37 nM, the LAD nose [1] was 2.50 mg/kg and the LAD conjunctiva [1] was 2.50 mg/kg. It also gave an LAD forepaws [1] of 2.50 mg/kg, an LAD trachea [1] of 10.0 mg/kg and an LAD urinary bladder [1] greater than 40 mg/kg.
Cc1ncc(Cn2c(N3CCN(C4CCN(C(=O)c5cc(C(F)(F)F)cc(C(F)(F)F)c5)C(Cc5ccccc5)C4)CC3)nc3ccccc32)o1 (stereo not drawn) [Compound 24] gave an IC50 [2] of 0.64 nM, an LAD nose [1] of 2.50 mg/kg and an LAD conjunctiva [1] of 10.0 mg/kg. It also gave an LAD forepaws [1] of 2.50 mg/kg, an LAD trachea [1] of 10.0 mg/kg and an LAD urinary bladder [1] greater than 40 mg/kg.
In the case of O=C(CN1CCN(C2CCN(C(=O)c3cc(C(F)(F)F)cc(C(F)(F)F)c3)C(Cc3ccccc3)C2)CC1)NC(c1ccccc1)c1ccccc1 (stereo not drawn) [Compound 33], the IC50 [2] is reported as 0.6 nM, the LAD nose [1] is reported as 2.50 mg/kg and the LAD conjunctiva [1] is reported as 2.50 mg/kg. The LAD forepaws [1] was 10.0 mg/kg, the LAD trachea [1] was greater than 40 mg/kg and the LAD urinary bladder [1] was greater than 40 mg/kg.
In the case of Cc1ncc(Cn2c(N3CCCN(C4CCN(C(=O)c5cc(C(F)(F)F)cc(C(F)(F)F)c5)C(Cc5ccccc5)C4)CC3)nc3ccccc32)o1 (stereo not drawn) [Compound 34], the IC50 [2] is reported as 0.35 nM, the LAD nose [1] is reported as 2.50 mg/kg and the LAD conjunctiva [1] is reported as 2.50 mg/kg. For the same molecule, the LAD forepaws [1] was 10.0 mg/kg, the LAD trachea [1] was 10.0 mg/kg and the LAD urinary bladder [1] was 10.0 mg/kg.
For COc1ccccc1NC(=O)CN1CCN(C2CCN(C(=O)c3cc(C(F)(F)F)cc(C(F)(F)F)c3)C(Cc3ccccc3)C2)CC1 (stereo not drawn) [Compound 38], the IC50 [2] was 0.86 nM, the LAD nose [1] was 10.0 mg/kg and the LAD conjunctiva [1] was 10.0 mg/kg. It also gave an LAD forepaws [1] of 10.0 mg/kg, an LAD trachea [1] greater than 40 mg/kg and an LAD urinary bladder [1] greater than 40 mg/kg.
For O=C(CN1CCN(C2CCN(C(=O)c3cc(C(F)(F)F)cc(C(F)(F)F)c3)C(Cc3ccccc3)C2)CC1)NC1(c2ccccc2)CCCCC1 (stereo not drawn) [Compound 48], the IC50 [2] was 0.26 nM, the LAD nose [1] was 2.50 mg/kg and the LAD conjunctiva [1] was 2.50 mg/kg. For the same molecule, the LAD forepaws [1] was 2.50 mg/kg, the LAD trachea [1] was 2.50 mg/kg and the LAD urinary bladder [1] was 2.50 mg/kg.
O=C(CN1CCN(C2CCN(C(=O)c3cc(C(F)(F)F)cc(C(F)(F)F)c3)C(Cc3ccccc3)C2)CC1)NC1(c2ccccc2)CCCCC1 (stereo not drawn) [Compound 49] showed an IC50 [2] of 0.59 nM, an LAD nose [1] of 2.50 mg/kg and an LAD conjunctiva [1] of 2.50 mg/kg. For the same molecule, the LAD forepaws [1] was 2.50 mg/kg, the LAD trachea [1] was 10.0 mg/kg and the LAD urinary bladder [1] was greater than 40 mg/kg.
Cc1cc(C)cc(NC(=O)CN2CCN(C3CCN(C(=O)c4cc(C(F)(F)F)cc(C(F)(F)F)c4)C(Cc4ccccc4)C3)CC2)c1 (stereo not drawn) [Compound 50] gave an IC50 [2] of 2.43 nM, an LAD nose [1] of 10.0 mg/kg and an LAD conjunctiva [1] of 10.0 mg/kg. The LAD forepaws [1] was 10.0 mg/kg, the LAD trachea [1] was 10.0 mg/kg and the LAD urinary bladder [1] was greater than 40 mg/kg.
Molecule Cc1cccc(C)c1NC(=O)CN1CCN(C2CCN(C(=O)c3cc(C(F)(F)F)cc(C(F)(F)F)c3)C(Cc3ccccc3)C2)CC1 (stereo not drawn) [Compound 53] has an IC50 [2] of 0.35 nM, an LAD nose [1] of 1.25 mg/kg and an LAD conjunctiva [1] of 1.25 mg/kg. For the same molecule, the LAD forepaws [1] was 1.25 mg/kg, the LAD trachea [1] was 2.50 mg/kg and the LAD urinary bladder [1] was 2.50 mg/kg.
Molecule “(+)-(B)-trans-4-[1-[3,5-bis(trifluoromethyl)benzoyl]-2-(phenylmethyl)-4-piperidinyl]-N-(2,6-dimethylphenyl)-1- piperazine acetamide [Compound 27]” has an IC50 [2] of 0.13 nM, an LAD nose [1] of 0.63 mg/kg and an LAD conjunctiva [1] of 0.63 mg/kg. For the same molecule, the LAD forepaws [1] was 0.63 mg/kg, the LAD trachea [1] was 0.63 mg/kg and the LAD urinary bladder [1] was 0.63 mg/kg.
For “(−)-(A)-trans-4-[1-[3,5-bis(trifluoromethyl) benzoyl]-2-(phenylmethyl)-4-piperidinyl]-N-(2,6-dimethylphenyl)-1-piperazine acetamide [Compound 26]”, the IC50 [2] was 2.75 nM, the LAD nose [1] was 10.0 mg/kg and the LAD conjunctiva [1] was 20.0 mg/kg. The LAD forepaws [1] was 10.0 mg/kg, the LAD trachea [1] was 40.0 mg/kg and the LAD urinary bladder [1] was 20.0 mg/kg.
